Experimental data reported in ChEMBL document CHEMBL1136280, “Geraniol-derived 1,2,4-trioxanes with potent in-vivo antimalarial activity” (2003).
Several values for one entry are separate records, joined by “and”; a condition that tells them apart may be missing. Identical values can stand only once.

Assays:
Format in all cases: functional
[1] = system: Mus musculus; test: In vivo antimalarial activity against Plasmodium yoelii in Swiss mice (Mus musculus) on day 4 at the dose of 48 mg/kg/day intramuscular.
[2] = system: Mus musculus; test: Mean survival time calculated for the mice which died during 28 day observation period at the dose of 48 mg/kg/day i.m.; conditions: route intramuscular
[3] = system: Mus musculus; test: Number of survival out of 5 mice on day 28 at the dose of 96 mg/kg/day orally; conditions: route oral
[4] = system: Mus musculus; test: Mean survival time calculated for the mice which died during 28 day observation period at the dose of 96 mg/kg/day orally; conditions: route oral
[5] = system: Mus musculus; test: In vivo antimalarial activity against Plasmodium yoelii in Swiss mice (Mus musculus) on day 4 at the dose of 96 mg/kg/day intramuscular.
[6] = system: Mus musculus; test: Number of survival out of 5 mice on day 28 at the dose of 96 mg/kg/day i.m.; conditions: route intramuscular
[7] = system: Mus musculus; test: In vivo antimalarial activity against Plasmodium yoelii in Swiss mice (Mus musculus) on day 4 at the dose of 96 mg/kg/day orally; conditions: route oral
[8] = system: Mus musculus; test: Number of survival out of 5 mice on day 28 at the dose of 48 mg/kg/day i.m.; conditions: route intramuscular
[9] = system: Mus musculus; test: Mean survival time calculated for the mice which died during 28 day observation period at the dose of 48 mg/kg/day orally; conditions: route oral
[10] = system: Mus musculus; test: Mean survival time calculated for the mice which died during 28 day observation period at the dose of 96 mg/kg/day i.m.; conditions: route intramuscular
[11] = system: Mus musculus; test: Number of survival out of 5 mice on day 28 at the dose of 48 mg/kg/day orally; conditions: route oral
[12] = system: Mus musculus; test: In vivo antimalarial activity against Plasmodium yoelii in Swiss mice (Mus musculus) on day 4 at the dose of 48 mg/kg/day orally; conditions: route oral
[13] = system: Mus musculus; test: Mean survival time calculated for the mice which died during 28 day observation period at the dose of 24 mg/kg/day i.m.; conditions: route intramuscular
[14] = system: Mus musculus; test: In vivo antimalarial activity against Plasmodium yoelii in Swiss mice (Mus musculus) on day 4 at the dose of 24 mg/kg/day intramuscular.
[15] = system: Mus musculus; test: Number of survival out of 5 mice on day 28 at the dose of 24 mg/kg/day i.m.; conditions: route intramuscular
[16] = system: Mus musculus; test: Mean survival time calculated for the mice which died during 28 day observation period at the dose of 24 mg/kg/day orally; conditions: route oral
[17] = system: Mus musculus; test: In vivo antimalarial activity against Plasmodium yoelii in Swiss mice (Mus musculus) on day 4 at the dose of 24 mg/kg/day orally; conditions: route oral
[18] = system: Mus musculus; test: Number of survival out of 5 mice on day 28 at the dose of 24 mg/kg/day orally; conditions: route oral

Compound | Suppression [1] [%] | MST [2] | Activity [3] | MST [4] | Suppression [5] [%] | Activity [6] | Suppression [7] [%] | Activity [8] | MST [9] | MST [10] | Activity [11] | Suppression [12] [%] | MST [13] | Suppression [14] [%] | Activity [15] | MST [16] | Suppression [17] [%] | Activity [18]
C=C(CCC(O)c1ccc(-c2ccccc2)cc1)C1COC2(CCCCC2)OO1 (stereo not drawn) | 81 | 10.6 | 0 | 13.8 | 96.4 | 4 | 100 | 0 | 11.2 | 14 | 0 | 77.5 |  |  |  |  |  | 
C=C(CCC(O)c1ccccc1)C1COC2(OO1)C1CC3CC(C1)CC2C3 (stereo not drawn) | 98.1 |  | 2 | 16.57 | 100 | 5 | 100 | 2 | 9 | >28 and 15.57 | 0 | 62.4 |  |  |  |  |  | 
C=C(CCC(O)c1ccc(Cl)cc1)C1COC2(CCCCC2)OO1 (stereo not drawn) | 97.1 | 16 | 0 | 10.2 | 100 | 5 | 88.8 | 0 |  | >28 |  |  |  |  |  |  |  | 
C=C(CCC(O)c1ccc(-c2ccccc2)cc1)C1COC2(CCCC2)OO1 (stereo not drawn) | 100 | 16.75 | 0 | 16 | 100 | 2 | 100 | 0 | 12 | 17.33 | 0 | 94.3 | 11.8 | 85.2 | 0 |  |  | 
C=C(CCC(O)c1cccc2ccccc12)C1COC2(CCCCC2)OO1 (stereo not drawn) | 93.4 | 14.2 | 0 | 13 | 100 | 4 | 68.4 | 0 |  | 16 |  |  |  |  |  |  |  | 
C=C(CCC(O)c1cccc2ccccc12)C1COC2(OO1)C1CC3CC(C1)CC2C3 (stereo not drawn) |  |  | 3 | 17 | 72.13 | 2 | 100 |  | 15.57 | 15.33 | 2 | 100 |  |  |  | 10.4 | 87.1 | 0
C=C(CCC(O)c1cccc2ccccc12)C1COC2(CCCC2)OO1 (stereo not drawn) | 93.4 | 15.75 | 0 | 10.4 | 100 | 1 | 81.3 | 0 |  | 14.75 |  |  |  |  |  |  |  | 
C=C(CCC(O)c1ccccc1)C1COC2(CCCC2)OO1 (stereo not drawn) | 100 | 12.6 | 0 | 8.2 | 100 | 2 |  | 0 |  | 14.8 |  |  |  | 67.7 |  |  |  | 
C=C(CCC(O)c1ccc(-c2ccccc2)cc1)C1COC2(OO1)C1CC3CC(C1)CC2C3 (stereo not drawn) |  |  | 3 | 17.33 | 79 | 3 | 100 |  | 17.57 | 14.5 | 2 | 100 |  |  |  | 8.8 | 90.4 | 0
C=C(CCC(O)c1ccc(Cl)cc1)C1COC2(OO1)C1CC3CC(C1)CC2C3 (stereo not drawn) | 78.9 |  | 5 | >28 | 100 | 5 | 100 | 0 | 10.2 | >28 and 15 | 0 | 90.8 |  |  |  |  |  | 
C=C(CCC(O)c1ccc(Cl)cc1)C1COC2(CCCC2)OO1 (stereo not drawn) | 98.4 | 14.57 | 0 | 7.4 | 100 | 2 | 29.6 | 0 |  | 14.57 |  |  |  |  |  |  |  | 
C=C(CCC(O)c1ccccc1)C1COC2(CCCCC2)OO1 (stereo not drawn) | 90.5 | 12.6 |  | 11.6 | 94.5 | 0 | 65 | 0 |  | 14.4 |  |  |  |  |  |  |  | 0
C=C(C)C(O)CCC(=C)C1COC2(OO1)C1CC3CC(C1)CC2C3 (stereo not drawn) | 100 | 14.8 |  |  | 100 | 2 |  | 0 |  | 19.57 |  |  | 12.2 | 67.7 | 0 |  |  | 
C[C@@H]1CC[C@H]2[C@@H](C)C(=O)O[C@@H]3O[C@@]4(C)CC[C@@H]1[C@]32OO4 [ARTEMISININ] | 100 |  |  |  |  |  |  | 5 | 16 | >28 |  |  |  | 100 | 4 |  |  | 
CCN(CC)CCCC(C)Nc1ccnc2cc(Cl)ccc12 (stereo not drawn) [CHLOROQUINE] |  |  | 4 | 20 |  |  | 100 |  | 17.6 |  | 4 | 100 |  |  |  |  |  | 
